In PubChem BioAssay AID1117285 (Broad Institute, 2014):
Inconclusive results are not listed. The source made the active and inactive calls.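 The calls were made as follows: active = called active in every replicate test, with a falling signal and AC50 within twice the top valid dose; inconclusive = replicate tests disagree in their calls; inactive = inactive in every replicate test, including a rising signal.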

biological target: Leucyl-cystinyl aminopeptidase (Mus musculus) (UniProt Q8C129); experiment: IRAP inhibitors, dose response, selectivity assay for ERAP1 modulator project, biochemical, dry powder samples, set 2 (AID 1117285); conditions: purified IRAP, Leu-AMC hydrolysis fluorescence, 1 h
Sequence (Q8C129 whole entry, looked up): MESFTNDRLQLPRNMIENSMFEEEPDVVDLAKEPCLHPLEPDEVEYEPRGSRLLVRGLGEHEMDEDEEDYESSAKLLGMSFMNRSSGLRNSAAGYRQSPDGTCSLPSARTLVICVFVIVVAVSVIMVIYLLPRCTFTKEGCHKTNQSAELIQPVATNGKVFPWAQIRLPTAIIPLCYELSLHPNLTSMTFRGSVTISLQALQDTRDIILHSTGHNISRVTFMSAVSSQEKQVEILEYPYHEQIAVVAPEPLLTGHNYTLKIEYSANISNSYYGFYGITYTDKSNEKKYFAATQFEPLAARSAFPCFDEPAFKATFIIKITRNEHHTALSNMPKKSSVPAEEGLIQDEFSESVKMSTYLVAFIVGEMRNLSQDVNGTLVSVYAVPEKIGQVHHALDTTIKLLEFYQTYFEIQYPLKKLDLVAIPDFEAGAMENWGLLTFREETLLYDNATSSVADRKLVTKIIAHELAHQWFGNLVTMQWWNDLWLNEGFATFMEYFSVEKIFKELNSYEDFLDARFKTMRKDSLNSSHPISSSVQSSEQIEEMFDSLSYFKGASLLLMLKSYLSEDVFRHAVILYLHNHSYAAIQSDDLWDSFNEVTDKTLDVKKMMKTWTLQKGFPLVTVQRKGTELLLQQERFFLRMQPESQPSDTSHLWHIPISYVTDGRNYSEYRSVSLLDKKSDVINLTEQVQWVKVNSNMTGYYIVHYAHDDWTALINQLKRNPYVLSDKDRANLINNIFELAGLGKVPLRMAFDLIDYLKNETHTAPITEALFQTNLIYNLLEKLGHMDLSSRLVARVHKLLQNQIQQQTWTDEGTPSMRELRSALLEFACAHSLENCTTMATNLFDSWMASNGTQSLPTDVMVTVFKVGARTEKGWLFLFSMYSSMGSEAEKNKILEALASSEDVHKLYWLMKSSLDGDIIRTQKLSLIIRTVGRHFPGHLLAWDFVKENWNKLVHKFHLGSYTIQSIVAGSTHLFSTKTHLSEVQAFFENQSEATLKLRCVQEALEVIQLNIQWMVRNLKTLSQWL

AC50, inactive:
CC(=O)N1CCN(C(=O)[C@@H]2CCN2C(=O)Nc2ccc(C)cc2)CC1 > 100 µM, COC(=O)[C@H](CCCCN)NC(=O)c1ccc(N)c(NC(=O)[C@@H](N)CCc2ccccc2)c1 > 100 µM

same assay, conditions: purified IRAP, Leu-AMC hydrolysis fluorescence, 1 h; at 0.1 µM; lower = more inhibition

Max activity % (lower = more inhibition), inactive:
CC(=O)N1CCN(C(=O)C2(NC(=O)NC(C)(C)C)CCCCC2)CC1, Cc1ccc(NC(=O)NC2(C(=O)N3CCOCC3)CCCCC2)cc1, CC(=O)N1CCN(C(=O)C2(NC(=O)Nc3ccc(C)cc3)CCCCC2)CC1, COc1ccc(C(=O)Nc2cc(C(F)(F)F)ccc2N2CCOCC2)cc1S(=O)(=O)O, CC(=O)N1CCN(C(=O)CNC(=O)Nc2ccc(C)cc2)CC1, CC(=O)N1CCN(C(=O)C2(NC(=O)Nc3ccc(C(F)(F)F)cc3)CCCC2)CC1, CC(=O)N1CCN(C(=O)C2(NC(=O)Nc3ccc(Cl)cc3)CCCCC2)CC1

same assay, conditions: purified IRAP, Leu-AMC hydrolysis fluorescence, 1 h; at 0.195 µM; lower = more inhibition

Max activity % (lower = more inhibition), inactive:
O=S(=O)(Nc1cc(C(F)(F)F)ccc1N1CCCCC1)c1ccccc1, NC(=NCCc1c[nH]c2ccccc12)NS(=O)(=O)c1cc(F)ccc1F, Cc1ccccc1S(=O)(=O)Nc1cc(C(F)(F)F)ccc1N1CCCCC1, O=[N+]([O-])c1cccc(S(=O)(=O)Nc2cc(C(F)(F)F)ccc2N2CCCCC2)c1, CC(=O)N1CCN(C(=O)C2(NC(=O)Nc3ccc(C(C)C)cc3)CCCC2)CC1, COc1ccc(C(=O)Nc2cc(C(F)(F)F)ccc2N2CCCC2)cc1S(=O)(=O)O, CC(=O)N1CCN(C(=O)C2(NC(=O)Nc3ccc(C(F)(F)F)cc3)CCCCC2)CC1, CC(=O)N1CCN(C(=O)C2CCCN2C(=O)Nc2ccc(C)cc2)CC1 (stereo not given), CC(=O)N1CCN(C(=O)C2(NC(=O)Nc3cccc(F)c3)CCCCC2)CC1, O=S(=O)(Nc1cc(C(F)(F)F)ccc1N1CCCCC1)c1ccc(F)cc1, CC(=O)N1CCN(C(=O)C2(NC(=O)Nc3ccccc3C(F)(F)F)CCCCC2)CC1, CC(=O)N1CCN(C(=O)C2(NC(=O)Nc3ccccc3)CCCC2)CC1, COc1ccc(S(=O)(=O)Nc2cc(C(F)(F)F)ccc2N2CCCCC2)cc1

same assay, conditions: purified IRAP, Leu-AMC hydrolysis fluorescence, 1 h; at 0.38 µM; lower = more inhibition

Max activity % (lower = more inhibition), inactive:
Cc1ccc(NC(=O)NC2(C(=O)N3CCN(c4ccccc4)CC3)CCCCC2)cc1, CC(=O)N1CCN(C(=O)C2(NC(=O)Nc3ccc(C(C)C)cc3)CCCCC2)CC1, CC(=O)N1CCN(C(=O)C2(NC(=O)Nc3cccc(C(F)(F)F)c3)CCCCC2)CC1, O=S(=O)(Nc1cc(C(F)(F)F)ccc1N1CCCCC1)c1cc(Cl)cc(Cl)c1

same assay, conditions: purified IRAP, Leu-AMC hydrolysis fluorescence, 1 h; at 0.8 µM; lower = more inhibition

Max activity % (lower = more inhibition), inactive:
O=S(=O)(Nc1cc(C(F)(F)F)ccc1N1CCCCC1)c1ccc(Cl)cc1, Cn1cnc(S(=O)(=O)Nc2cc(C(F)(F)F)ccc2N2CCCCC2)c1, N#Cc1ccc(S(=O)(=O)Nc2cc(C(F)(F)F)ccc2N2CCCCC2)cc1, O=[N+]([O-])c1ccc(S(=O)(=O)Nc2cc(C(F)(F)F)ccc2N2CCCCC2)c([N+](=O)[O-])c1, CC(=O)N1CCN(C(=O)C2(NC(=O)Nc3ccccc3F)CCCCC2)CC1

same assay, conditions: purified IRAP, Leu-AMC hydrolysis fluorescence, 1 h; at 3 µM; lower = more inhibition

Max activity % (lower = more inhibition), inactive:
O=S(=O)(Nc1cc(C(F)(F)F)ccc1N1CCCCC1)c1ccc(-c2ccccc2)cc1, CC(=O)N1CCN(C(=O)C2(NC(=O)Nc3ccc(F)cc3)CCCC2)CC1, O=S(=O)(Nc1cc(C(F)(F)F)ccc1N1CCCCC1)c1ccc(Br)cc1, O=S(=O)(Nc1cc(C(F)(F)F)ccc1N1CCCCC1)c1ccc(C(F)(F)F)cc1

same assay, conditions: purified IRAP, Leu-AMC hydrolysis fluorescence, 1 h; at 12 µM; lower = more inhibition

Max activity % (lower = more inhibition), inactive:
COc1cccc(NC(=O)NC2(C(=O)N3CCN(C(C)=O)CC3)CCCCC2)c1, COc1ccc(NC(=O)NC2(C(=O)N3CCN(C(C)=O)CC3)CCCCC2)cc1

same assay, conditions: purified IRAP, Leu-AMC hydrolysis fluorescence, 1 h; at 50 µM; lower = more inhibition

Max activity % (lower = more inhibition), inactive:
CC(=O)N1CCN(C(=O)C(C)(C)NC(=O)Nc2ccc(C)cc2)CC1, COc1ccc(C(=O)Nc2cccc(C(F)(F)F)c2)cc1S(=O)(=O)O, COc1ccc(C(=O)Nc2cc(F)ccc2N2CCCCC2)cc1S(=O)(=O)O, CC(=O)N1CCN(C(=O)C2(NC(=O)Nc3ccc(F)cc3)CCCCC2)CC1, COc1ccc(C(=O)Nc2ccccc2N2CCCCC2)cc1S(=O)(=O)O, CC(=O)N1CCN(C(=O)C2(NC(=O)NCCc3ccccc3)CCCCC2)CC1, CC(=O)N1CCN(C(=O)C2(NC(=O)Nc3ccccc3)CCCCC2)CC1, COc1ccc(C(=O)Nc2cc(C(F)(F)F)ccc2N2CCCCC2)cc1S(=O)(=O)O, COc1ccc(C(=O)Nc2cc(C)ccc2N2CCCCC2)cc1S(=O)(=O)O, CC(=O)N1CCN(C(=O)C2(NC(=O)Nc3ccccc3F)CCCCC2)CC1, O=C(Nc1cc(C(F)(F)F)ccc1N1CCCCC1)c1ccc(S(=O)(=O)O)cc1

same assay, conditions: purified IRAP, Leu-AMC hydrolysis fluorescence, 1 h; lower = more inhibition

Max activity % (lower = more inhibition), inactive:
COC(=O)c1ccc(OC)c(S(=O)(=O)Nc2cc(C(F)(F)F)ccc2N2CCCCC2)c1, COc1ccc(C(=O)O)cc1S(=O)(=O)Nc1ccccc1N1CCCCC1, COc1ccc(C(=O)O)cc1S(=O)(=O)Nc1cc(C(F)(F)F)ccc1N1CCCCC1, COc1ccc(C(=O)O)cc1S(=O)(=O)Nc1cc(C(F)(F)F)ccc1N(C)C, COc1ccc(C(=O)O)cc1S(=O)(=O)Nc1cc(F)ccc1N1CCCCC1, COc1ccc(C(=O)O)cc1S(=O)(=O)Nc1cc(C)ccc1N1CCCCC1, COc1ccc(C(=O)O)cc1S(=O)(=O)Nc1cc(C(F)(F)F)ccc1N1CCOCC1
